Data reported in patent US20140141456A1, “PAPP-A2 AS A MARKER FOR MONITORING, PREDICTING AND DIAGNOSING PREECLAMPSIA” (Ansh Labs, LLC, priority 2012, published 2014).

Key:
[1] = target: PAPP-A2 (Homo sapiens, UniProt Q9BXP8)
Procedure: Medium from 293T cells transfected with empty vector (lane 1), cDNA encoding PAPP-A2 with an inactivating E734Q mutation (pPA2-KO) (lane 2), or cDNA encoding wild-type PAPP-A2 (pPA2) (lanes 3-6) was incubated with C-terminally c-myc tagged rIGFBP-5. Proteolytic activity was assessed by Western blotting using anti-c-myc. ‘i’ denotes intact rIGFBP-5; ‘c’ denotes the detectable C-terminal c-myc tagged cleavage product.
Briefly, recombinant IGFBP-5 as contained in 5 microL cell culture medium was incubated with culture supernatants (10 microL) from cells transfected with pPA2, pPA2-KO, or empty expression vectors (see U.S. Pat. No. 7,083,940). Phosphate buffered saline was added to a final volume of 50 microL. After incubation at 37 degrees Celsius for 12 hours, 15 microL of the reaction mixture was separated by reducing 16% SDS-PAGE, blotted onto a PVDF membrane, and the C-terminal cleavage product was detected with monoclonal anti-c-myc (clone 9E19, ATTC) using peroxidase-conjugated secondary antibodies (P260, DAKO), and enhanced chemiluminescence (ECL, Amersham).

[2] = system: rIGFBP-5; test: Proteolytic activity of PAPP-A2 against IGFBP-5, Western blotting using anti-c-myc; type: biochemical, human; conditions: absence of inhibitors; medium from 293T cells transfected with pPA2
[3] = system: IGFBP-3; test: Activity of PAPP-A2 against IGFBPs, ligand blotting using radiolabeled IGF-II; type: biochemical; conditions: medium from 293T cells transfected with pPA2
Procedure: (§1) Ligand blotting (Conover et al., 1993, J Clin Invest 91, 1129-37) with radiolabeled IGF-II (Bachem) was used to assay for activity against IGFBP-1 (from HepG2 conditioned medium), rIGFBP-2 (GroPep), rIGFBP-3 (gift of D. Powell), rIGFBP-4 (Austral), rIGFBP-5 (gift of D. Andress), and rIGFBP-6 (Austral). […] IGFBP-3 was partially degraded (FIG. 10). This cleavage was independent of the presence of IGF. Experiments were carried out with media from cells transfected with pPA2 or empty vector.
(§2) Medium from 293T cells transfected with empty vector (−), or cDNA encoding PAPP-A2 (pPA2) (+) was incubated with each of the six IGFBPs (BP1-BP6), and the activity was assessed by ligand blotting using radiolabeled IGF-II.

[4] = system: IGFBP-5; test: as above; type: biochemical; conditions: medium from 293T cells transfected with pPA2
Procedure: as §1, §2

Chain of PAPP-A2 (Q9BXP8 234-1791 limits assumed): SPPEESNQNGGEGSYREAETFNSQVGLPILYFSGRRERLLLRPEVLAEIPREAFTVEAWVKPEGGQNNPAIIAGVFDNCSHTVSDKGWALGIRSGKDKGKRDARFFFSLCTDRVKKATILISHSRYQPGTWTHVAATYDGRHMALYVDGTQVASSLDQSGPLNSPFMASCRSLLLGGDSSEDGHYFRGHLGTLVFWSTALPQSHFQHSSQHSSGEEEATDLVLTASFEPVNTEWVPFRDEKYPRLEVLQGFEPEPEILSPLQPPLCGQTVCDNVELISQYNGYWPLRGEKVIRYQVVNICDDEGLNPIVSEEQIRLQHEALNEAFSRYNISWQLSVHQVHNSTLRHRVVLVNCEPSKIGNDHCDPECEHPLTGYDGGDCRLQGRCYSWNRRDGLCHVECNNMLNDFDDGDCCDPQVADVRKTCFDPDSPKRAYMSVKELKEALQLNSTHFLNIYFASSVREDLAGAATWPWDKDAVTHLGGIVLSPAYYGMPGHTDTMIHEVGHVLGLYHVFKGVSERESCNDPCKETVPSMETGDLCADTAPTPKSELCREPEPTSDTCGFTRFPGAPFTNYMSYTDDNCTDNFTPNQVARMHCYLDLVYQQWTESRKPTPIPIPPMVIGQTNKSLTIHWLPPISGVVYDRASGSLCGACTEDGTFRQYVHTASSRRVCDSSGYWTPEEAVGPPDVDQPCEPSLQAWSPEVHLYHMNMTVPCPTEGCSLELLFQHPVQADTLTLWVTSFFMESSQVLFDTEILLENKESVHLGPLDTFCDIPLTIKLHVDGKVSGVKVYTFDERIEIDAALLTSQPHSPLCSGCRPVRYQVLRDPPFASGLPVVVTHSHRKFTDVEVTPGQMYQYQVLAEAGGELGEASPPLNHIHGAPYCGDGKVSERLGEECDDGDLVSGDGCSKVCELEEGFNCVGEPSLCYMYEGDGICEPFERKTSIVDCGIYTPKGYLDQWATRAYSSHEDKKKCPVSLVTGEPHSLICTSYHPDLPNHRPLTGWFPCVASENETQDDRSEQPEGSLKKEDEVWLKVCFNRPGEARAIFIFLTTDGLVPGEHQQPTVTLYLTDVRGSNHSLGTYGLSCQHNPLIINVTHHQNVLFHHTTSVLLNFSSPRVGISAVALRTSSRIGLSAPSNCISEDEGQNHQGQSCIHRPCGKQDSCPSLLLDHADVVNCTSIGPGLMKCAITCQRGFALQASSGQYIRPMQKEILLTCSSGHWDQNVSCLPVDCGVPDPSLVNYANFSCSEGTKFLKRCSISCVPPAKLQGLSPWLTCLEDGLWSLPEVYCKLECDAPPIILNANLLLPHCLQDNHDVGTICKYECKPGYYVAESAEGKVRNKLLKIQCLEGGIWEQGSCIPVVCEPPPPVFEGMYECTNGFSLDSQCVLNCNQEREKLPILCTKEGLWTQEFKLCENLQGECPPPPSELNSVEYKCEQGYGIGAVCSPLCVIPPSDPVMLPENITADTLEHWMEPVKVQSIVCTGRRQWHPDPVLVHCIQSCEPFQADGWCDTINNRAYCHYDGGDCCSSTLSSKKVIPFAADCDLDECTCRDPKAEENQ

Row | Compound | PAPP-A2 activity (degradation of rIGFBP-5) [1] | Degradation of rIGFBP-5 [2] | Degradation of IGFBP-3 [3] | Cleavage of IGFBP-5 [4]
1 | O=c1oc(Cl)c(Cl)c2ccccc12 [3,4-DCI] | not affected |  |  | 
2 | c1cnc2c(c1)ccc1cccnc12 [phenanthroline] | abolished |  |  | 
3 | PAPP-A2: recombinant wild-type PAPP-A2 metalloproteinase in medium from 293T cells transfected with cDNA (pPA2) |  | degraded all rIGFBP-5 | Partial degradation | Complete cleavage
